Results reported in patent US20230382925A1, “MODULATORS OF CYSTIC FIBROSIS TRANSMEMBRANE CONDUCTANCE REGULATOR” (VERTEX PHARMACEUTICALS INCORPORATED, priority 2020, published 2023).
pEC50: −log10 of the molar value. Read-outs that look alike come from different tables or passages of the source.

Biological target: CFTR (Homo sapiens, UniProt P13569)
Experiment: Membrane Potential Dye, Enteroid Assay B
Format: cell-based
Description: Base medium (ADF+++) consisted of Advanced […], 2 mM Glutamax, 10 mM HEPES, 1 μg/mL penicillin/streptomycin.
Intestinal enteroid maintenance medium (IEMMN) consisted of ADF+++, 1× B27 supplement, 1× N2 supplement, 1.25 mM N-acetyl cysteine, 10 mM Nicotinamide, 50 ng/mL hEGF, 10 nM Gastrin, 1 μg/mL hR-spondin-1, 100 ng/mL hNoggin, TGF-b type 1 inhibitor A-83-01, 100 μg/mL Primocin, 10 μM P38 MAPK inhibitor SB202190.
Bath 1 Buffer consisted of 1 mM MgCl2, 160 mM NaCl, 4.5 mM KCl, 10 mM HEPES, 10 mM Glucose, 2 mM CaCl2).
Chloride Free Buffer consisted of 1 mM Magnesium Gluconate, 2 mM Calcium Gluconate, 4.5 mM Potassium Gluconate, 160 mM Sodium Gluconate, 10 mM HEPES, 10 mM Glucose.
Bath 1 Dye Solution consisted of Bath 1 Buffer, 0.04% Pluronic F127, 20 μM Methyl Oxonol, 30 μM CaCCinh-A01, 30 μM Chicago Sky Blue.
Chloride Free Dye Solution consisted of Chloride Free Buffer, 0.04% Pluronic F127, 20 μM Methyl Oxonol, 30 μM CaCCinh-A01, 30 μM Chicago Sky Blue.
Chloride Free Dye Stimulation Solution consisted of Chloride Free Dye Solution, 10 μM forskolin, 100 μM IBMX, and 300 nM Compound III.
Human intestinal epithelial enteroid cells were obtained from the Hubrecht Institute for Developmental Biology and Stem Cell Research, Utrecht, The Netherlands and expanded in T-Flasks as previously described (Dekkers J F, Wiegerinck C L, de Jonge H R, Bronsveld I, Janssens H M, de Winter-de Groot K M, Brandsma A M, de Jong N W M, Bijvelds M J C, Scholte B J, Nieuwenhuis E E S, van den Brink S, Clevers H, van der Ent C K, Middendorp S and M Beekman J M. A functional CFTR assay using primary cystic fibrosis intestinal organoids. Nat Med. 2013 July; 19(7):939-45.).
3. Enteroid Cell Harvesting and Seeding
Cells were recovered in cell recovery solution, collected by centrifugation at 650 rpm for 5 min at 4° C., resuspended in TrypLE and incubated for 5 min at 37° C. Cells were then collected by centrifugation at 650 rpm for 5 min at 4° C. and resuspended in IEMM containing 10 μM ROCK inhibitor (RI). The cell suspension was passed through a 40 μm cell strainer and resuspended at 1×10^6 cells/mL in IEMM containing 10 μM RI. Cells were seeded at 5000 cells/well into multi-well plates and incubated for overnight at 37° C., 95% humidity and 5% CO2 prior to assay.
5. Membrane Potential Dye, Enteroid Assay B
Enteroid cells were incubated with test compound in IEMM for 18-24 hours at 37° C., 95% humidity and 5% CO2. […] Briefly, cells were washed 5 times in Bath 1 Buffer. Bath 1 Dye Solution was added and the cells were incubated for 25 min at room temperature. Following dye incubation, cells were washed 3 times in Chloride Free Dye Solution. Chloride transport was initiated by addition of Chloride Free Dye Stimulation Solution and the fluorescence signal was read for 15 min. […] Chloride transport was then expressed as a percentage of the chloride transport following treatment with 1 μM (14S)-8-[3-(2-{Dispiro[2.0.2.1]heptan-7-yl}ethoxy)-1H-pyrazol-1-yl]-12,12-dimethyl-2λ^6-thia-3,9,11,18,23-pentaazatetracyclo[17.3.1.111,14.05,10]tetracosa-1(22),5,7,9,19(23),20-hexaene-2,2,4-trione, 3 μM (R)-1-(2,2-difluorobenzo[d][1,3]dioxol-5-yl)-N-(1-(2,3-dihydroxypropyl)-6-fluoro-2-(1-hydroxy-2-methylpropan-2-yl)-1H-indol-5-yl)cyclopropanecarboxamide and 300 nM acute N-[2,4-bis(1,1-dimethylethyl)-5-hydroxyphenyl]-1,4-dihydro-4-oxoquinoline-3-carboxamide triple combination control (% Activity).

[1] = Table 10, read-out: Ent. B EC50

CFTR, sequence (P13569 with tags, fused parts or gaps DEL508-508): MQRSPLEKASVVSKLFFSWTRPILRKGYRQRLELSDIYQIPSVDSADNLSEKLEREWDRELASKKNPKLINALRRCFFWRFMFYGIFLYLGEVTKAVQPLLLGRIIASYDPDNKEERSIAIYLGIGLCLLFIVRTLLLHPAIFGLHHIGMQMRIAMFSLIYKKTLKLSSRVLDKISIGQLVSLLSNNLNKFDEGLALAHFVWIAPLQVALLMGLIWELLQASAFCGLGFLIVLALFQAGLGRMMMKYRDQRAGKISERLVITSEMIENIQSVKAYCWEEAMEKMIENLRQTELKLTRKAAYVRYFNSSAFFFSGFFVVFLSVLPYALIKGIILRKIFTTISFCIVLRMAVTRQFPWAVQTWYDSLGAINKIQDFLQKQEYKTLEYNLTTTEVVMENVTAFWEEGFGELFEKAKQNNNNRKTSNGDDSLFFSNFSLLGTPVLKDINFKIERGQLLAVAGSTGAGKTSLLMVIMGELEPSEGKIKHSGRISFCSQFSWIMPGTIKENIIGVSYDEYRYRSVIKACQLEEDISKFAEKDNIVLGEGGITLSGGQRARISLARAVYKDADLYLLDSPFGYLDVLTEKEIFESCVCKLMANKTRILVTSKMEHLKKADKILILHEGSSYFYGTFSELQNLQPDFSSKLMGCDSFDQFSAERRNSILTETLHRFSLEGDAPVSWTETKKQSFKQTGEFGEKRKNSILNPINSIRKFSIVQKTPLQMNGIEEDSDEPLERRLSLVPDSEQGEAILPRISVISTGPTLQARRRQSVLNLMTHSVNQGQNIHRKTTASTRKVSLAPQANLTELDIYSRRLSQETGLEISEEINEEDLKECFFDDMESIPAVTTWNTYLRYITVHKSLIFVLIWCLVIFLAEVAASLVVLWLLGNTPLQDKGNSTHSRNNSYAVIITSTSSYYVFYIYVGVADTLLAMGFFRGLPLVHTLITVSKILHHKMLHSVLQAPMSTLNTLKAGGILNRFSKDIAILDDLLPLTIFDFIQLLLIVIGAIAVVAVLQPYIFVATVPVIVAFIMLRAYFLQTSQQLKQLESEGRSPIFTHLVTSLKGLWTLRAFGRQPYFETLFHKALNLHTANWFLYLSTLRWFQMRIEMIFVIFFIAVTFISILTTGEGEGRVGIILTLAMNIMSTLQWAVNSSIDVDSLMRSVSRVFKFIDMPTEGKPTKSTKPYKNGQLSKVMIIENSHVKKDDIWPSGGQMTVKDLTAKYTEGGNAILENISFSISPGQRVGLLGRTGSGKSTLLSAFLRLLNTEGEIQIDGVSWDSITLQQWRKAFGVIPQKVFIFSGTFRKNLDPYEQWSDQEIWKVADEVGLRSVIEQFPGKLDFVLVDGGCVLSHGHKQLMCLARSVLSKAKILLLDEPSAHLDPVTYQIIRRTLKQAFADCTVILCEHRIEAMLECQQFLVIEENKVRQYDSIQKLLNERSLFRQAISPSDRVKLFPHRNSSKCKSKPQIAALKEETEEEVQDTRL

Row | SMILES | Ent. B Max Activity (%) (Table 10) | pEC50 [1] | further results
1 | COC(=O)NC1(C)CC2(CC(N3C(=O)c4cccc(c4)S(=O)(=O)Nc4nc(cc(-c5c(C)cccc5C)n4)OC[C@H]3CC(C)(C)C)C2)C1 (single isomer, unassigned) [Compound 96] | ++ (++ is 30-60%) | > 6.00 | –
2 | Cc1cccc(C)c1-c1cc2nc(n1)NS(=O)(=O)c1cccc(c1)C(=O)N([C@H]1C[C@@H](CN(C)C)C1)[C@H](CC(C)C)CO2 (single isomer, unassigned) [Compound 105] | – | – | Ent. B Max Activity (%) (Table 9): +++ (+++ is >60%); pEC50 (Table 9, read-out: Ent. B EC50): > 6.00
3 | Cc1cccc(C)c1-c1cc2nc(n1)NS(=O)(=O)c1cccc(c1)C(=O)N([C@H]1C[C@@H](CN(C)C)C1)[C@H](CC(C)C)CO2 (single isomer, unassigned) [Compound 106] | – | – | Ent. B Max Activity (%) (Table 9): +++ (+++ is >60%); pEC50 (Table 9, read-out: Ent. B EC50): > 6.00
4 | Cc1cccc(C)c1-c1cc2nc(n1)NS(=O)(=O)c1cccc(c1)C(=O)N([C@H]1C[C@@H](CNC(=O)OC(C)C)C1)[C@H](CC(C)C)CO2 (single isomer, unassigned) [Compound 107] | – | – | Ent. B Max Activity (%) (Table 9): +++ (+++ is >60%); pEC50 (Table 9, read-out: Ent. B EC50): > 6.00
5 | Cc1cccc(C)c1-c1cc2nc(n1)NS(=O)(=O)c1cccc(c1)C(=O)N([C@H]1C[C@@H](CNC(=O)OC(C)C)C1)[C@H](CC(C)C)CO2 (single isomer, unassigned) [Compound 108] | – | – | Ent. B Max Activity (%) (Table 9): +++ (+++ is >60%); pEC50 (Table 9, read-out: Ent. B EC50): > 6.00
6 | Cc1cccc(C)c1-c1cc2nc(n1)NS(=O)(=O)c1cccc(c1)C(=O)N(C1CC3(CC(C(=O)N(C)C)C3)C1)[C@H](CC(C)(C)C)CO2 (single isomer, unassigned) [Compound 114] | +++ (+++ is >60%) | > 6.00 | –
7 | [H][C@]1(N2C(=O)c3cccc(c3)S(=O)(=O)Nc3nc(cc(-c4c(C)cccc4C)n3)OC[C@H]2CC(C)(C)C)C[C@@]2(C[C@H](C(=O)N(C)C)C2)C1 (single isomer, unassigned) [Compound 115] | +++ (+++ is >60%) | > 6.00 | –
8 | Cc1cccc(C)c1-c1cc2nc(n1)NS(=O)(=O)c1cccc(c1)C(=O)N(C1CC3(C1)CC(C(C)(C)O)C3)[C@H](CC(C)(C)C)CO2 (single isomer, unassigned) [Compound 116] | +++ (+++ is >60%) | > 6.00 | –
9 | Cc1cccc(C)c1-c1cc2nc(n1)NS(=O)(=O)c1cccc(c1)C(=O)N(C1CC3(C1)CC(C(C)(C)O)C3)[C@H](CC(C)(C)C)CO2 (single isomer, unassigned) [Compound 117] | +++ (+++ is >60%) | > 6.00 | –
10 | Cc1cccc(C)c1-c1cc2nc(n1)NS(=O)(=O)c1cccc(c1)C(=O)N(C1CC3(CC(N)C3)C1)[C@H](CC(C)(C)C)CO2 (single isomer, unassigned) [Compound 118] | – | – | Ent. B Max Activity (%): +++ (+++ is >60%); pEC50 (read-out: Ent. B EC50): > 6.00
11 | Cc1cccc(C)c1-c1cc2nc(n1)NS(=O)(=O)c1cccc(c1)C(=O)N(C1CC3(C1)CC(C)(O)C3)[C@H](CC(C)(C)C)CO2 (single isomer, unassigned) [Compound 119] | +++ (+++ is >60%) | > 6.00 | –
12 | Cc1cccc(C)c1-c1cc2nc(n1)NS(=O)(=O)c1cccc(c1)C(=O)N(C1CC3(C1)CC(C)(O)C3)[C@H](CC(C)(C)C)CO2 (single isomer, unassigned) [Compound 120] | ++ (++ is 30-60%) | > 6.00 | –
13 | Cc1cccc(C)c1-c1cc2nc(n1)NS(=O)(=O)c1cccc(c1)C(=O)N(C1CC3(CC(O)C3)C1)[C@H](CC(C)(C)C)CO2 (single isomer, unassigned) [Compound 121] | +++ (+++ is >60%) | > 6.00 | –
14 | Cc1cccc(C)c1-c1cc2nc(n1)NS(=O)(=O)c1cccc(c1)C(=O)N(C1CC3(CC(O)C3)C1)[C@H](CC(C)(C)C)CO2 (single isomer, unassigned) [Compound 122] | +++ (+++ is >60%) | > 6.00 | –
15 | [H][C@]1(N2C(=O)c3cccc(c3)S(=O)(=O)Nc3nc(cc(-c4c(C)cccc4C)n3)OC[C@H]2CC(C)C)C[C@@]2(C[C@H](NC(=O)OC(C)C)C2)C1 (single isomer, unassigned) [Compound 123] | +++ (+++ is >60%) | > 6.00 | –
16 | [H][C@]1(N2C(=O)c3cccc(c3)S(=O)(=O)Nc3nc(cc(-c4c(C)cccc4C)n3)OC[C@H]2CC(C)C)C[C@@]2(C[C@H](NC(=O)OC(C)C)C2)C1 (single isomer, unassigned) [Compound 124] | +++ (+++ is >60%) | > 6.00 | –
17 | Cc1cccc(C)c1-c1cc2nc(n1)NS(=O)(=O)c1cccc(c1)C(=O)N([C@H]1C[C@@H](OC(C)C)C1)[C@H](CC1(C(F)(F)F)CC1)CO2 (single isomer, unassigned) [Compound 130] | – | – | Ent. B Max Activity (%) (Table 9): +++ (+++ is >60%); pEC50 (Table 9, read-out: Ent. B EC50): > 6.00
18 | Cc1cccc(C)c1-c1cc2nc(n1)NS(=O)(=O)c1cccc(c1)C(=O)N([C@H]1C[C@@H](OC(C)C)C1)[C@H](CC1(C(F)(F)F)CC1)CO2 (single isomer, unassigned) [Compound 131] | – | – | Ent. B Max Activity (%) (Table 9): +++ (+++ is >60%); pEC50 (Table 9, read-out: Ent. B EC50): > 6.00
19 | [H][C@]1(N2C(=O)c3cccc(c3)S(=O)(=O)Nc3nc(cc(-c4c(C)cccc4C)n3)OC[C@H]2CC2(C(F)(F)F)CC2)C[C@]2(C[C@@H](CO)C2)C1 (single isomer, unassigned) [Compound 134] | – | – | Ent. B Max Activity (%): +++ (+++ is >60%); pEC50 (read-out: Ent. B EC50): > 6.00
20 | [H][C@]1(N2C(=O)c3cccc(c3)S(=O)(=O)Nc3nc(cc(-c4c(C)cccc4C)n3)OC[C@H]2CC2(C(F)(F)F)CC2)C[C@]2(C[C@@H](CO)C2)C1 (single isomer, unassigned) [Compound 135] | – | – | Ent. B Max Activity (%): +++ (+++ is >60%); pEC50 (read-out: Ent. B EC50): > 6.00
21 | Cc1cccc(C)c1-c1cc2nc(n1)NS(=O)(=O)c1cccc(c1)C(=O)N([C@H]1C[C@@H](C(C)(C)O)C1)[C@H](CC(C)(C)C)CO2 (single isomer, unassigned) [Compound 141] | +++ (+++ is >60%) | > 6.00 | –
22 | Cc1cccc(C)c1-c1cc2nc(n1)NS(=O)(=O)c1cccc(c1)C(=O)N([C@H]1C[C@@H](C(C)(C)O)C1)[C@H](CC(C)(C)C)CO2 (single isomer, unassigned) [Compound 142] | +++ (+++ is >60%) | > 6.00 | –
23 | COC(=O)N1C[C@H]2C[C@@H](C1)C2N1C(=O)c2cccc(c2)S(=O)(=O)Nc2nc(cc(-c3c(C)cccc3C)n2)OC[C@H]1CC(C)(C)C (single isomer, unassigned) [Compound 143] | ++ (++ is 30-60%) | – | pEC50 (read-out: Ent. B EC50, Table 10): > 6.00
24 | Cc1cccc(C)c1-c1cc2nc(n1)NS(=O)(=O)c1cccc(c1)C(=O)N([C@@H]1CC[C@@H]1C1CC1)[C@H](CC(C)(C)C)CO2 (single isomer, unassigned) [Compound 147] | ++ (++ is 30-60%) | > 6.00 | –
25 | Cc1cccc(C)c1-c1cc2nc(n1)NS(=O)(=O)c1cccc(c1)C(=O)N([C@@H]1CC[C@@H]1C1CC1)[C@H](CC(C)(C)C)CO2 (single isomer, unassigned) [Compound 148] | +++ (+++ is >60%) | > 6.00 | –
26 | CO[C@H]1C[C@@H](N2C(=O)c3cccc(c3)S(=O)(=O)Nc3nc(cc(-c4c(C)cccc4C)n3)OC[C@H]2CC(C)(C)C)C1 (single isomer, unassigned) [Compound 150] | – | – | Ent. B Max Activity (%): +++ (+++ is >60%); pEC50 (read-out: Ent. B EC50): > 6.00
